Assay [1] deals with LPS Induced IL23p19 in THP-1 Cells. The assay is described as follows: LPS Induced IL23p19 in THP-1 Cells (with IFNγ Primed) Assay. Type of assay: cell-based, human. Conditions: THP-1 cells primed with IFNγ 50 ng/mL, LPS 1 ug/mL, 18 hours, 10 pt, read-out: IL23-p19 ELISA, THP1-IFNγ, LPS, 10 pt EC50. The text has this: LPS Induced IL23p19 in THP-1 Cells (with IFNγ Primed) Assay
THP-1 Cells (ATCC, Cat #TIB-202), Dimethyl Sulfoxide (DMSO) (Sigma-Aldrich, Cat #D2650), RPMI 1640 (Cellgro, Cat #10-040-CM), Fetal Bovine Serum (Sigma, Cat #F4135), Albumin From Bovine Serum (BSA) (Sigma-Aldrich, Cat #A7906), LPS (Serotype K-235, Sigma, Product Number L 2143), IFNγ (Peprotech, Cat #300-02) Capture antibody: Human IL-23p19 ELISA (e-Bioscience, Cat. #14-7238-85), Detection antibody: Primary Mouse Biotinylated anti-human IL-12(p40/p70) (e-Bioscience, Cat. #13-7129-85), Secondary HRP-conjugated Streptavidin (R&D Systems, Cat #DY998), 1×PBST Washing Buffer (PBS-Tween tablet) (VWR International, Cat #80058-558), ELISA Blocking Buffer (PBS with 1% BSA), ELISA Dilution Buffer (PBS with 1% BSA), 384 Well Flat-Bottom, MaxiSorp Black Immuno Plates (Thermo Scientific, Cat #12-565-346), 384 Well Flat-Bottom, White Tissue Culture Plates (Thermo Scientific, Cat #12-565-343), Super Signal ELISA Pico Chemiluminescent Substrate (Thermo Scientific, Cat #37070), Cell Titer Glo reagent (Promega, Cat #G7573), Positive control, IKK2VI inhibitor (Calbiochem, Cat #401483), AquaMax 4000 plate washer (Molecular Devices), Luminometer, Wallac Victor2 1420 Multilabel Counter.
On day 1, 50K/well THP-1 cells were seeded and primed with IFNγ (50 ng/mL) in 384-well plates for about 18 hours in RPMI media with 10% FBS. On day 2, the compound was serially diluted in DMSO from 5 mM in 3-fold dilutions, and then diluted 1:125 in RPMI media with 10% FBS. 50 μL/well 2× compound was added to 50 μL/well THP-1 cells (with IFNγ primed) in duplicate in 384 well tissue culture plates. The cells were pre-incubated with compound for 1 hour at 37° C., 5% CO2 before addition of 10 μL/well 11×LPS to give a final concentration of 1 ug/mL LPS. Day 3, after stimulation for 18 hours at 37° C., 5% CO2, the assay plate was centrifuged and 70 μL/well supernatant was harvested. IL-23p19 protein in 70 µL/well of supernatant was measured by sandwich ELISA, and 25 μl/well Cell Titer Glo reagent was added to the remaining cells to measure compound toxicity.
Human IL-23p19 Sandwich ELISA:
Maxisorp immuno ELISA plates were pre-coated with 25 μL/well of anti-IL-23p19 capture antibody (2.5 ug/mL) in PBS overnight at room temperature. After washing with 1×PBST, the plates were blocked using 100 μL/well of 1% BSA in PBS for 2 hours at room temperature. The plates were washed three times with 1×PBST and 70 μL/well supernatant were added. The plates were incubated at room temperature for 2 hours with shaking and washed three times with 1×PBST. 25 μL/well of biotin labeled anti-IL-12(p40/p70) detection antibody (100 ng/mL) in PBS with 1% BSA was added and the plates were incubated at room temperature for 2 hours with shaking. After washing three times with 1×PBST, 25 μL/well of streptavidin-HRP (1:200) in PBS with 1% BSA was added and the plates were incubated at room temperature for 20 minutes with shaking. The plates were washed three times with 1×PBST and 25 μL/well of Super Signal ELISA Pico Chemiluminescent Substrate were added. The plates were read with a luminometer, and the chemiluminescence values were entered into Athena (Rigel) for curve fitting, EC50 calculation, and database storage. […]

The subject of assay [2] is LPS induced IL-23 (p19/p40) in DC cells. The assay is described as follows: IL23-p19 ELISA, dendritic (DC) cells differentiated from human PBMC, LPS stimulated. Type of assay: cell-based. The settings on record: LPS 1 μg/ml, 18 hours, 10 pt. The protocol:
Compound Screening Using DC Cells
Human PBMC cells (400 million) obtained from the vendor were transferred into a T-175 flask containing 15 ml RPMI media (10% FBS) and incubate for 2 hours at 37° C. After 2 hours, the media including floating cells was aspirated out carefully and 12 ml of fresh RPMI media (10% FBS) containing GMCSF (100 ng/ml) and IL4 (20 ng/ml) was added, and the flask was kept in a 37° C. incubator for 7 days.
After 3 days, fresh GMCSF (100 ng/ml) and IL4 (20 ng/ml) were added to the flask and the incubation continued. After 7 days, the fully differentiated cells were harvested by spinning down (1200 rpm/5 min) and aspirating the media. The cells were suspended in fresh RPMI media (10% FBS) containing 50 ng/ml IFNγ (1000 U/ml) and then plated (50K/well in 100 μl) onto a white clear bottom 96 well plate and left in a 37° C. incubator for 24 hours.
After 24 hours incubation, 100 μl of RPMI media was added containing 2× concentrated test compound per well to the above cell-culture media (final concentration becomes 1×) and the plates were pre-incubated for 1 hour at 37° C. before stimulating with LPS.
After 1 hour compound pre-incubation, 10 μl per well of 20× concentrated LPS solution in RPMI media was added to give a final concentration of 1 μg/ml. The mixture was shaken and incubated the plates at 37° C. for an additional 18 hours.
155 μl of the supernatant was harvested from each well carefully (without the tip touching the bottom of the well) and to the remaining 50 μl/well of the cell culture plate was added 50 μl of Cell Titer Glo reagent. The mixture was incubated for 1-2 minutes on a shaker and the plate was read for luminescence intensity to determine the compound cytotoxicity. The cell culture supernatant collected above was used to carry out IL23 ELISA (65 μl—Supernatant) and IL10 ELISA (90 μl—Supernatant) as described below.
Human IL-23 (p19/p40) ELISA Protocol (e-Biosciences)
To 10.5 ml PBS add 50 μl of anti-IL23 (p19) was added capture antibody (2.5 μg/ml). The mixture was mixed well and 100 μl of the coating solution was added to each well of the 96 well white plates from Pierce. The wells were covered and incubated overnight at 4° C.
The anti-IL23 (p19)-antibody-coated plates were washed 2× using TBST (use plate washer) and blocked using 200 μl of 0.5% Casein for 1.5 to 2 hours at room temperature with shaking.
The plates were washed 2× using TBST and the supernatant was transferred (65 μl/well) to the above pre-blocked/IL23(p19)-antibody-coated 96 well plate, and incubated at room temperature for 1.5 hours with shaking.
The plates were washed 4× using TBST (plate washer) and 100 μl/well detection antibody solution prepared from 2 μl of biotin labeled anti-IL-12 (p40/p70) antibody in 11 ml 1% BSA/PBS solution (1-5000 dilution) was added. The plates were incubated for 1 hour with shaking at Room temperature.
Again, the plates were washed 4× with TBST and 100 μl of HRP labeled Streptavidin (R&D Systems) solution (10 μl/10 ml 1% BSA solution) was added, and the plates were incubated at room temperature for another 45 minutes with shaking.
After 45 minutes, the plates were washed with TBST 4× and 100 μl/well Super Signal ELISA Pico Chemiluminescent Substrate from Pierce (3.5 ml A+3.5 ml B+3.5 ml MQ water) was added. The plates were shaken for 1-2 minutes then read on a plate reader. […]

Like-named read-outs stand apart in the source and are kept apart here.

Consider `CCOC1CCC(n2cc(NC(=O)c3coc(-c4cnn(COP(=O)(O)O)c4)n3)c(-c3nc(F)ccc3F)n2)CC1` (stereo not shown) [Compound I-8, sodium (4-(4-((3-(3,6-difluoropyridin-2-yl)-1-((1r,4r)-4-ethoxycyclohexyl)-1H-pyrazol-4-yl)carbamoyl)oxazol-2-yl)-1H-pyrazol-1-yl)methyl phosphate], for which the EC50 in assay [1] (Table 1) was found to be 187 nM; in assay [1] (Table 2) it was 187 nM; in assay [2] (Table 1, IFNγ 50 ng/ml), 7640 nM; in assay [2] (Table 2, IFNγ 50 ng/ml), 7640 nM.

For `CCO[C@H]1CC[C@H](n2cc(NC(=O)c3coc(-c4cn[nH]c4)n3)c(-c3nc(F)ccc3F)n2)CC1` [Compound I-9, N-(3-(3,6-difluoropyridin-2-yl)-1-((1r,4r)-4-ethoxycyclohexyl)-1H-pyrazol-4-yl)-2-(1H-pyrazol-4-yl)oxazole-4-carboxamide], the EC50 in assay [1] (Table 1) worked out at 22.8 nM; in assay [1] (Table 2) it was 22.8 nM; in assay [2] (Table 1, IFNγ 50 ng/ml), 172 nM; in assay [2] (Table 2, IFNγ 50 ng/ml) it was 172 nM.

Take `CCO[C@H]1C[C@@H](n2cc(NC(=O)c3coc(-c4cn[nH]c4)n3)c(-c3nc(F)ccc3F)n2)C1` [Compound I-10, N-(3-(3,6-difluoropyridin-2-yl)-1-((1s,3s)-3-ethoxycyclobutyl)-1H-pyrazol-4-yl)-2-(1H-pyrazol-4-yl)oxazole-4-carboxamide]: the EC50 in assay [1] (Table 1) is 69.9 nM; in assay [1] (Table 2) it was 69.9 nM; in assay [2] (Table 1, IFNγ 50 ng/ml), 30.9 nM; in assay [2] (Table 2, IFNγ 50 ng/ml), 30.9 nM.

Regarding `O=C(Nc1cn([C@H]2CC[C@H](O)CC2)nc1-c1nc(F)ccc1F)c1coc(-c2cn[nH]c2)n1` [Compound I-11, N-(3-(3,6-difluoropyridin-2-yl)-1-((1r,4r)-4-hydroxycyclohexyl)-1H-pyrazol-4-yl)-2-(1H-pyrazol-4-yl)oxazole-4-carboxamide], the EC50 in assay [1] (Table 1) came out at 25.4 nM; in assay [1] (Table 2), 25.4 nM; in assay [2] (Table 1, IFNγ 50 ng/ml), 179 nM; in assay [2] (Table 2, IFNγ 50 ng/ml), 179 nM.

For the molecule `CCO[C@H]1CC[C@H](n2cc(NC(=O)c3coc(-c4cnn(COP(=O)(O)O)c4)n3)c(-c3nc(F)ccc3F)n2)CC1` [Compound I-12, (4-(4-((3-(3,6-difluoropyridin-2-yl)-1-((1r,4r)-4-ethoxycyclohexyl)-1H-pyrazol-4-yl)carbamoyl)oxazol-2-yl)-1H-pyrazol-1-yl)methyl dihydrogen phosphate], the EC50 turned out to be 177 nM in assay [1] (Table 1); 177 nM in assay [1] (Table 2); 2400 nM in assay [2] (Table 1, IFNγ 50 ng/ml); 2400 nM in assay [2] (Table 2, IFNγ 50 ng/ml).

On to `CCO[C@H]1CC[C@H](n2cc(NC(=O)c3coc(-c4cn[nH]c4)n3)c(-c3ncc(F)cc3F)n2)CC1` [Compound I-13, N-(3-(3,5-difluoropyridin-2-yl)-1-((1r,4r)-4-ethoxycyclohexyl)-1H-pyrazol-4-yl)-2-(1H-pyrazol-4-yl)oxazole-4-carboxamide], for which the EC50 was determined as 34.1 nM in assay [1] (Table 1); 34.1 nM in assay [1] (Table 2); 143 nM in assay [2] (Table 1, IFNγ 50 ng/ml); 143 nM in assay [2] (Table 2, IFNγ 50 ng/ml).

With `O=C(Nc1cn(CCOCC(F)(F)F)nc1-c1ccccn1)c1coc(-c2cn[nH]c2)n1` [Compound I-15, 2-(1H-pyrazol-4-yl)-N-(3-(pyridin-2-yl)-1-(2-(2,2,2-trifluoroethoxy)ethyl)-1H-pyrazol-4-yl)oxazole-4-carboxamide], the EC50 in assay [1] (Homo sapiens, Table 1) came to 85.3 nM; in assay [2] (Table 1, IFNγ 50 ng/ml), 451 nM.

Take `CCO[C@H]1CC[C@H](n2cc(NC(=O)c3coc(-c4cnn(COP(=O)(O)O)c4)n3)c(-c3cnccn3)n2)CC1` [Compound I-17, (4-(4-((1-((1r,4r)-4-ethoxycyclohexyl)-3-(pyrazin-2-yl)-1H-pyrazol-4-yl)carbamoyl)oxazol-2-yl)-1H-pyrazol-1-yl)methyl dihydrogen phosphate]: the EC50 in assay [1] (Table 1) is 60.3 nM; in assay [1] (Table 2), 60.3 nM; in assay [2] (Table 1, IFNγ 50 ng/ml) it was 15.6 nM; in assay [2] (Table 2, IFNγ 50 ng/ml), 15.6 nM.

`CCOC1CCC(n2cc(NC(=O)c3coc(-c4cnn(COP(=O)(O)O)c4)n3)c(-c3cnccn3)n2)CC1` (stereo not shown) [Compound I-18, sodium (4-(4-((1-((1r,4r)-4-ethoxycyclohexyl)-3-(pyrazin-2-yl)-1H-pyrazol-4-yl)carbamoyl)oxazol-2-yl)-1H-pyrazol-1-yl)methyl phosphate]: the EC50 in assay [1] (Table 1) stood at 83.3 nM; in assay [1] (Table 2), 83.3 nM; in assay [2] (Table 1, IFNγ 50 ng/ml), 25.6 nM; in assay [2] (Table 2, IFNγ 50 ng/ml) it was 25.6 nM.

The values are drawn from US11993594B2, “IRAK inhibitors and method for making and using” (Rigel Pharmaceuticals, Inc., priority 2016, dated 2024).
